From ChEMBL document CHEMBL1201862, “PubChem BioAssay data set” (2004)
Activity calls are given as the source filed them. Rule as the data show it: actives have a measured IC50 and inactives only a lower limit.

Biological target: T1, Tyrosine-protein phosphatase non-receptor type 22 (Homo sapiens, UniProt Q9Y2R2)
T1 sequence (Q9Y2R2 whole entry): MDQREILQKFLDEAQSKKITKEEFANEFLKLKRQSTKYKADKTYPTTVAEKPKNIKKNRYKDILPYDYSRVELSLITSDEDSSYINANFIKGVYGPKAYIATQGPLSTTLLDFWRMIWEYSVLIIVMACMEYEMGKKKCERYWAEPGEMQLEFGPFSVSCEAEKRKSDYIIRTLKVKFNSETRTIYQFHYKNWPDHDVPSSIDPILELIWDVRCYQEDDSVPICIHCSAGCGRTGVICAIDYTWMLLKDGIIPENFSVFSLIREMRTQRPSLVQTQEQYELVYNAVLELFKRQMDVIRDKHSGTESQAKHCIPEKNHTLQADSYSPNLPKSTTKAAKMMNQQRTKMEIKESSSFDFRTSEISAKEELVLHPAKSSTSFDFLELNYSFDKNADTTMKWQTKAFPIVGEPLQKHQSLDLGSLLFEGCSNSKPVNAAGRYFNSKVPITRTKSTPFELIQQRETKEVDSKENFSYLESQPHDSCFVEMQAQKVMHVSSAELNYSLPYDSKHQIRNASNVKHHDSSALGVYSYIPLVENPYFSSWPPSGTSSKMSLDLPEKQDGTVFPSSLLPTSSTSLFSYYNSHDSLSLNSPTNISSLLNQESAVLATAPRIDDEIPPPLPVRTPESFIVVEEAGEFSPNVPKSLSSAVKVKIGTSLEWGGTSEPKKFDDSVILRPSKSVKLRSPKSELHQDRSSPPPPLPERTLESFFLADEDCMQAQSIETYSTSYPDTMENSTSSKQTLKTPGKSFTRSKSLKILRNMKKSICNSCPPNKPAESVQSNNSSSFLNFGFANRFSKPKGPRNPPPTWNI
Experiment: LYP (PTPN22) phosphatase inhibitor potency, SAR follow-up, biochemical, pCAP fluorogenic substrate, fluorescence, set 3 (AID 449727)
Assay type: functional

## O=C(O)COc1ccc(/C=N/NC(=O)c2ccc(-c3csc(Nc4ccc(Cl)cc4)n3)cc2)cc1
  IC50: 0.369 µM (active)
